Measured values from PMC9320513, “Peptide-Mediated Targeted Delivery of Aloe-Emodin as Anticancer Drug” (Molecules, 2022).
Where a SMILES comes first, the peptide text is derived from it. The star is where a group is joined. X1 = O=C(CCCC(=O)*)OCc1cc(O)c2c(c1)C(=O)c1cccc(O)c1C2=O

Columns and labels:
SKBR3 cells = test: MTT cell viability assay in SKBR3 cells; format: cell-based, Human
Protocol: (§1) The compounds (2), (3), and (6), were evaluated for cell viability effects using the MTT assay on SKBR3 and A549 cells at 24, 48, and 72 h at different concentrations. Cell lines were seeded into 96-well microtiter plates (Corning, Inc., Corning, NY, USA) at a density of 1 × 10^4 cells/well. After 24 h, cells were exposed to increased concentrations of compounds (previously prepared in PBS to obtain a stock solution of 1 mM) in cell culture medium. After an incubation time of 24, 48, and 72 h, media were removed and MTT (Sigma, Deisenhofen, Germany) diluted in culture media was added to each well at 0.5 mg/mL. Plates were incubated for 2 h at 37 °C in 5% CO2 incubator; unreacted dye was removed, and cells were solubilized in DMSO (Merck, Darmstadt, Germany). Absorbance was read at 570 nm by an ELISA plate reader (Biorad). Data were expressed as cell metabolic activity, which was calculated as the absorbance value of cells treated with different compounds/absorbance value of control (cells incubated with vehicle alone) cells * 100%. All experiments were performed in triplicate, and all data were expressed as the mean ± standard deviation. One-way ANOVA with Dunnett’s multiple comparisons test was performed with respect to the controls (**** p < 0.0001).

A549 cells = test: MTT cell viability assay in A549 cells; format: cell-based, Human
Protocol: as §1

NK-92 cells [1] = test: Growth inhibition of NK92 cells, WST-8 assay; conditions: 20, 10, 5 and 1 µM, 24, 48 and 72 h, WST-8, two independent experiments
Protocol: NK-92 cell lines in exponential phase of growth were collected, extensively washed with warm RPMI-1640, and seeded (in triplicate) in 96-well microtiter Costar plates (Costar, Rochester, NY, USA) at a density of 5 × 10^3 cells/mL. The cells were cultured in BM containing recombinant IL-2(100 IU/mL). In the growth inhibition assays, NK92 cells were maintained for 24, 48, and 72 h at 37 °C alone or in the presence of 20, 10, 5, and 1 µM of Aloe-emodin, glutaryl derivatives of AE and AE-CPP-LTV (6). For all above-described experiments, cell survival was determined by WST-8 assay (Orangu™ Cell Counting SolutionWST-8 cell proliferation kit (Aurogene, Rome, Italy), after 24, 48, and 72 h treatment at 37 °C in 5% CO2. Cells were treated with different compounds/absorbance values of control (cells incubated with vehicle alone) cells * 100%. Statistical analysis was performed by the Student’s t-test (2-tailed) to assess differences between means of data analyzed. The p-values are indicated in the figure legends. The statistical analysis of differences was performed with GraphPad Prism 8.

[2] = test system: NK92 cells killing K562 target cells; test: NK92 cell-mediated cytotoxicity against K562 cells, LDH release; format: cell-based, Human; conditions: NK92 treated 48 h with 5 to 20 μM, E:T ratio 10:1, 4 h with K562, LDH release, 4 independent experiments
Protocol: To determine NK-92’s cell cytotoxicity, CytoTox 96 non-radioactive cytotoxicity assay (Promega, Madison, WI) was used, based on the colorimetric detection of the released enzyme LDH. NK-92 cells were harvested, washed, counted, and diluted at the concentration of 1 × 10^6 cells/mL in BM with 10% FCS and 100 μ/mL of IL-2. […] Target cells were harvested, washed, resuspended to 1 × 10^5 cells/mL in BM, added, and incubated with effector cells for 4 h at 37 °C employing incresingincreasing effector/target cell ratio ranging from 0.625:1 to 10:1 in triplicate. A total of 50 μL of supernatants were assayed for LDH activity according to the manufacturer’s instruction. Controls for spontaneous and maximum LDH release in effector and target cells were also assayed. The calculation of cytotoxicity percentage was as follows: (Experimental—Effector Spontaneous—Target spontaneous)/(Target Maximum—Target Spontaneous) × 100. Data are expressed as mean ± standard deviation from 4 independent experiments. […] The statistical analysis was performed with GraphPad Prism 8.

NK-92 cells [3] = test: Apoptosis in NK-92 cells, Annexin V-FITC flow cytometry; format: cell-based, Human; conditions: 48 h
Protocol: (§2) Apoptosis was quantified using FITC-conjugated annexin V (AV) according to the manufacturer’s protocol (Marine Biological Laboratory, Woods Hole, MA, USA). Annexin V-FITC staining in NK-92 cell lines was determined after 48 h in the absence or presence of different amounts of Aloe-emodin (9 mM stock solution in DMSO) ranging from 6.25 to 50 μM. Proliferation was evaluated by measuring Ki-67 nuclear antigen expression using FITC-labeled anti-human Ki-67 mAb according to the manufacturer’s protocol (BD Biosciences, San Jose, CA, USA). Acquisition was performed on a FACSCalibur flow cytometer (BD Biosciences) and at least 10,000 events per sample were run. Data were analyzed using the Cell Quest Pro software (BD Biosciences) and expressed as mean ± standard deviation from 2 independent experiments.

NK-92 cells [4] = test: Proliferation of NK-92 cells, Ki-67 flow cytometry; format: cell-based, Human; conditions: 48 h, all concentrations except 50 μM
Protocol: as §2

O=C(O)CCCC(=O)OCc1cc(O)c2c(c1)C(=O)c1cccc(O)c1C2=O [compound 3, 5-((4,5-dihydroxy-9,10-dioxo-9,10-dihydroanthracen-2-yl)methoxy)-5-oxopentanoic acid]
comparative cell viability reduction (3 versus AE (2); 6 versus 3 at 20 μM) (SKBR3 cells): more effective
concentration at which effect on cell viability is already seen (SKBR3 cells): effective already at 5 µM
comparative cell viability reduction (3 versus AE (2); 6 versus 3 at 20 μM) (A549 cells): more effective
concentration at which effect on cell viability is already seen (A549 cells): effective already at 5 µM
growth inhibition of NK-92 cells (NK-92 cells [1]): did not induce growth inhibition
NK92-mediated cytotoxicity against K562 compared with untreated NK92 cells [2]: less NK92-mediated cytotoxicity than the control sample

O=C1c2cccc(O)c2C(=O)c2c(O)cc(CO)cc21 [compound 2, 8-dihydroxy-3-hydroxymethyl-anthraquinone]
effect on NK-92 cells at the higher dose (NK-92 cells [3]; 50 μM): cytotoxic effect
apoptosis of NK-92 cells (NK-92 cells [3]; 6.25 to 50 μM, all concentrations except 50 μM, Annexin V-FITC): neither AE (2) induced apoptosis or affected proliferation
proliferation of NK-92 cells (NK-92 cells [4]): neither AE (2) induced apoptosis or affected proliferation

CC(C)C[C@H](NC(=O)CNC(=O)[C@@H]1CCCN1C(=O)CNC(=O)[C@@H](NC(=O)[C@H](CCCCN)NC(=O)[C@H](CCCNC(=N)N)NC(=O)[C@H](CCCCN)NC(=O)[C@H](CCCCN)NC(=O)[C@H](CCCCN)NC(=O)[C@@H]1CCCN1C(=O)CCCC(=O)OCc1cc(O)c2c(c1)C(=O)c1cccc(O)c1C2=O)C(C)C)C(=O)N[C@H](C(=O)N[C@H](C(=O)N[C@@H](CO)C(=O)N1CCC[C@H]1C(=O)N[C@@H](Cc1c[nH]c2ccccc12)C(=O)N[C@@H](Cc1ccc(O)cc1)C(=O)O)C(C)C)[C@@H](C)O [compound 6] (X1-PKKKRKVGPGLTVSPWY-OH)
growth inhibition of NK-92 cells (NK-92 cells [1]): did not induce growth inhibition
